Measurements from the OPERA property sets (Mansouri et al. 2018).

| SMILES | logP |
| --- | --- |
| O=[N+]([O-])c1cccc2c1c([N+](=O)[O-])cc[n+]2[O-] | 0.95 |
| O=C1CN=C(c2ccc(Cl)cc2)c2cc(Br)ccc2N1 | 3.78 |
| N#CCNc1ccccc1C(=O)O | 1.8 |
| N#Cc1ccc(OC(=O)CNC(=O)c2ccccc2)cc1 | 2.11 |
| CCCCCCCCCCCCCC[n+]1ccc(C)c(C)c1.[I-] | 2.93 |
| CCCC(=O)Nc1ccc(C)cc1O | 2.26 |
| Nc1ncnc2ccccc12 | 1.28 |
| CN(C)C(=O)Cc1cccs1 | 0.65 |
| O=C1CN=C(c2ccc(C(F)(F)F)cc2)c2ccccc2N1 | 3.34 |
| COc1c(C)cc(Cc2cnc(N)nc2N)cc1C | 2.19 |
| O=NN(CCCl)C(=O)NC1CCCCC1O (stereo not drawn) | 1.75 |
| CCCCC1OC(=O)c2cc(N)ccc21 (stereo not drawn) | 2.86 |
| COC12C(COC(N)=O)C3=C(C(=O)C(C)=C(Nc4cccnc4)C3=O)N1CC1NC12 (stereo not drawn) | 0.52 |
| Brc1ccc(N=C2NCCN2)cc1 | 1.75 |
| CNC1CC2OC1c1ccccc12 (stereo not drawn) | 0.91 |
| CN(C)CCN(Cc1ccc(C(C)(C)C)cc1)c1ccccc1 | 5.34 |
| CC(=O)Nc1cc(C)c(O)c(C)c1C | 0.82 |
| O=C(c1ccncc1)c1ccc(O)cc1 | 1.37 |
| CCN(CC)CCCNC(=O)c1ccccc1OC | 1.76 |
| COc1ccc(Cc2cnc(N)nc2N)cc1O | 0.74 |
| CC(=O)Oc1ccc(C=CNC=O)cc1 | 1.32 |
| O=NN1CCCCCCC1 | 1.48 |
| CN(C)N=Nc1cccc([N+](=O)[O-])c1 | 2.75 |

| SMILES | logP |
| --- | --- |
| CCCc1nnc(N)o1 | 0.23 |
| CC(=O)OCC1=C(C(=O)O)N2C(=O)C(NC(=O)C(O)c3ccccc3)C2SC1 (stereo not drawn) | -0.44 |
| Fc1cccc(F)c1N=C1NCCN1 | 0.93 |
| COP(=O)(OC)Oc1cc(C)c([N+](=O)[O-])c(C)c1 | 2.57 |
| Clc1cc(Cl)c(Cl)c(-c2c(Cl)ccc(Cl)c2Cl)c1 | 7.15 |
| Nc1cc([N+](=O)[O-])cc(Cl)c1O | 1.53 |
| NN=C1c2ccccc2C(=O)C1C(=O)C(c1ccccc1)c1ccccc1 (stereo not drawn) | 3.62 |
| CC(=O)c1ccc2c(c1)C(c1ccccc1F)=NCC(=O)N2 | 1.75 |
| CC(=O)Nc1cc(C(F)(F)F)cc(C(F)(F)F)c1Br | 3.51 |
| O=NN(CCCl)C(=O)NC1CS(=O)(=O)CS(=O)(=O)C1 | -0.94 |
| CC1=NS(=O)(=O)c2ccc(Cl)cc2N1 | 1.21 |
| CCOC(=O)CCCN1C(=O)C=CC1=O | 0.67 |
| Cc1ccc(NC(=O)CN2CCCCC2)cc1 | 2.96 |
| CCCOP(N)(=O)SCCC (stereo not drawn) | 1.23 |
| COc1cc(OC)nc(-n2[nH]c(=O)cc2C)n1 | 1.16 |
| O=[N+]([O-])c1nccn1CCOc1ccccc1 | 1.89 |
| CC1(C)SC2C(NC(=O)Cc3ccc(Cl)cc3Cl)C(=O)N2C1C(=O)O (stereo not drawn) | 3.3 |
| Nc1ccc(I)cc1C(=O)O | 2.06 |
| O=C1CCC2CCCCC2C1 (stereo not drawn) | 1.97 |
| O=S(=O)(Nc1cccc(Cl)c1)C(F)(F)F | 4 |
| O=C1CC(C(=O)O)Oc2ccc(Cl)cc21 (stereo not drawn) | 1.77 |
| CCCCCCCC[n+]1ccc(C)c(C)c1.[I-] | -0.41 |
| NNC(=O)c1ccc(Br)cc1 | 1.28 |

| SMILES | logP |
| --- | --- |
| CC1(C)N=C(N)N=C(N)N1c1ccc(N)cc1 | -0.59 |
| FC(F)(F)c1nc2ncccc2[nH]1 | 1.38 |
| NNc1ncnc2ccccc12 | 1.67 |
| Clc1ccccc1-c1ccccc1Cl | 4.97 |
| O=C1NC(=S)SC1=CC=Cc1ccc([N+](=O)[O-])o1 | 0.93 |
| Clc1cc(Cl)c(-c2ccccc2)cc1Cl | 5.81 |
| CC(=O)N(CCCl)c1ccc(CC(=O)O)cc1 | 1.2 |
| Nc1nc(N)nc(-c2c(Cl)cccc2Cl)n1 | 1.38 |
| Clc1ccccc1NC1=NCCN1 | 1.36 |
| O=C(c1ccccc1)c1ccc(N=C=S)cc1 | 4.88 |
| [O-][n+]1ccc(Cl)c2ccccc21 | 1.08 |
| O=C(CN1CCCCC1)Nc1ccc(Cl)cc1 | 3.34 |
| COC1C(Cl)C(Cl)C(Cl)C(OC)C1OC (stereo not drawn) | 1.87 |
| C#CCN(C)N=Nc1nc[nH]c1C(N)=O | 0.33 |
| COc1ccc(Cc2cnc(N)nc2N)cc1Nc1ccccc1 | 2.88 |
| O=C(c1ccncc1)c1ccc([N+](=O)[O-])cc1 | 1.76 |
| CC(=O)C(C#N)=NNc1cc(C(F)(F)F)ccc1Cl | 5.08 |
| CCCCCCCCCCOn1c(=O)[nH]c(C)c(Br)c1=O | 4.65 |
| CC(C)Cc1nnc(N)o1 | 0.4 |
| Cc1ccc(C(=N)c2ccc(C)cc2)cc1 | 3.71 |
| CCCCC(C)n1nnc2ccccc21 (stereo not drawn) | 3.44 |
| CC(C)c1nnc(N2CCOCC2)n(N)c1=O | 0.49 |
| CON(C)C(=O)Nc1cccc(F)c1 | 1.68 |

| SMILES | logP |
| --- | --- |
| O=NN1CCC(O)CC1 | -0.89 |
| COCc1c(OC)cc(Cc2cnc(N)nc2N)cc1OC | 1.19 |
| Cc1nnc(C)s1 | 0.03 |
| CCC(C)NC(=O)C=C(C)c1ccc(Cl)cc1 (stereo not drawn) | 3.92 |
| NNC(=O)c1ccccc1I | 0.47 |
| COc1ccc(Cc2cnc(N)nc2N)cc1N | 0.76 |
| CN(C)C(=O)c1ccsc1 | 0.55 |
| CN1C(C(=O)Nc2nccs2)C(=O)c2ccccc2S1(=O)=O (stereo not drawn) | 1.64 |
| CCCCCCc1nnc(N)o1 | 1.43 |
| O=[N+]([O-])C=Cc1ccccc1Cl | 2.85 |
| Cc1[nH]c(=O)n(O)c(=O)c1Br | -1.12 |
| O=[N+]([O-])c1cccc(C2NCCS2)c1 (stereo not drawn) | 1.59 |
| NC(=O)/C=C/c1ccc2c(c1)OCO2 | 1.4 |
| CNC(=S)NCCSCc1nc[nH]c1C | 0.5 |
| Nc1ccc(C(O)C(CO)NC(=O)C(Cl)Cl)cc1 (stereo not drawn) | -0.29 |
| CC(=O)NC1=C(Nc2ccccc2)C(=O)c2ccccc2C1=O | 1.73 |
| O=[N+]([O-])c1nccn1CCCOc1ccccc1 | 2.38 |
| CCCOc1cccc(O)c1 | 2.59 |
| OCCCn1nnc2ccccc21 | 0.91 |
| CN(C)C(=O)Nc1cccc(OCCc2ccccc2)c1 | 3.39 |
| Cc1cc(=O)n2c(C)cccc2n1 | 1.05 |
| CC(=O)Nc1c(C)cc(O)c(C)c1C | 0.75 |
| OCC1OC(OC2CCCCC2)C(O)C(O)C1O (stereo not drawn) | -0.63 |

| SMILES | logP |
| --- | --- |
| CCCCCCCCCCCCCC[n+]1cc(C)cc(C)c1.[I-] | 2.9 |
| CC(C)(C)C(=O)C(C#N)=NNc1cccc(Cl)c1 | 4.62 |
| CCCCCCCCCC[n+]1ccc(C)c(C)c1.[I-] | 0.66 |
| CCOc1cc(Cc2cnc(N)nc2N)cc(OCC)c1C(C)=O | 2.04 |
| COc1cc(S(=O)(=O)CCO)cc(OC)c1OC | 0.18 |
| NC(=O)CCCCn1nnc2ccccc21 | 0.58 |
| CCC(CC)(C(N)=O)c1ccc2c(c1)OCO2 | 1.59 |
| Oc1ccc(C(c2ccc(O)cc2)c2cccnc2)cc1 | 3.13 |
| CCCCC1=Nc2ccc(Cl)cc2S(=O)(=O)N1 | 2.52 |
| CCCCCCCC(=O)NN | 1 |
| Nc1ncnc2nc(-c3cccc([N+](=O)[O-])c3)[nH]c12 | 1.93 |
| S=C=Nc1ccc(N=Nc2ccccc2)cc1 | 5.55 |
| O=NN(CCCl)C(=O)NCCCCNC(=O)N(CCCl)N=O | 0.9 |
| COc1cc(Cc2cnc(N)nc2N)cc(OC)c1Br | 2.01 |
| COc1cccc(Cc2cnc(N)nc2N)c1 | 1.54 |
| S=C1CCCCCCCN1 | 1.44 |
| CCCCOC(=O)N(CCCC)SN(C)C(=O)ON=C(C)SC | 4.2 |
| C[N+](C)(C)Cc1cccc(C(N)=O)c1.[Br-] | -2.8 |
| CCOc1ccc(OC(C)=O)cc1 | 1.95 |
| COc1cc(CC(=O)O)ccc1OCCCC(C)C | 3.3 |
| CNC(=O)Oc1cccc(I)c1 | 2.52 |
| COC(=O)N(C)SN(C)C(=O)Oc1cccc2c1OC(C)(C)C2 | 3 |
| O=S1(=O)NC(c2cccs2)=Nc2ccccc21 | 1.68 |

| SMILES | logP |
| --- | --- |
| COC(=O)[C@@H]1[C@@H](C=C(C)C)C1(C)C | 3.76 |
| CC1CCC(C)N1N=O (stereo not drawn) | 0.86 |
| CCOC(=O)CCCn1nnc2ccccc21 | 1.86 |
| CC(=O)Oc1ccccc1F | 1.76 |
| COc1ccc(CCCC(=O)O)cc1 | 2.33 |
| CN1CCN(N=O)CC1 | 0.2 |
| CN(C)c1ccc(C(N)=O)cc1 | 1.14 |
| ClC1C=CCC(Cl)C1Cl (stereo not drawn) | 2.84 |
| O=C1CN=C(c2ccccc2F)c2cc(I)ccc2N1CC(O)CO (stereo not drawn) | 1.81 |
| CCCNP(=O)(OC)Oc1cc(Cl)c(Cl)cc1Cl (stereo not drawn) | 3.7 |
| NC(=O)c1ccc(Cl)nn1 | 0 |
| CC(C)N1CCOC(c2cccc(Cl)c2)C1 (stereo not drawn) | 3.27 |
| COC1C(Cl)C(Cl)C(Cl)C(Cl)C1OC (stereo not drawn) | 2.82 |
| O=C(CNC(=O)c1ccccc1)Oc1cccc(C(F)(F)F)c1 | 3.3 |
| O=[N+]([O-])c1cnc(NC2=NCCN2CCO)s1 | 1.23 |
| CC(C)CNCNC(=O)c1ccccc1 | 1.73 |
| CCc1ccccc1N1C(=O)CCC1=O | 0.64 |
| O=C(Nc1ccccc1)NC(CO)(CO)CO | 0.43 |
| CNC1C2CCC1c1ccccc12 (stereo not drawn) | 2.37 |
| NC(=O)c1cccs1 | 0.52 |
| CSc1nc2nc(SC)[nH]c(Cl)c-2n1 | 0.63 |
| O=C1CCC(=O)N1c1ccc(C(F)(F)F)cc1 | 1.45 |
| CCOC(=O)C(C#N)=NNc1cc(Cl)cc(Cl)c1 | 3.82 |

| SMILES | logP |
| --- | --- |
| CCCOn1c(=O)cc(C)[nH]c1=O | 0.3 |
| Cc1[nH]c(=O)n(OCCCl)c(=O)c1Br | 0.3 |
| CCC(C)C(NC(C)=O)C(=O)NC (stereo not drawn) | 0.14 |
| O=C1CCC(=O)N1c1ccccc1Cl | 0.56 |
| Oc1ccc(C(c2ccc(O)cc2)c2ccccn2)cc1 | 2.84 |
| CNC(=O)c1ccc(S(N)(=O)=O)cc1 | -0.31 |
| CC12CC3CC(C1)CC(N)(C3)C2 | 3.01 |
| CCCCO[N+](=O)[O-] | 2.15 |
| N#Cc1ccc2c(c1)C(c1ccccc1)=NCC(=O)N2 | 1.82 |
| CNC(=O)C(CC(C)C)NC(C)=O (stereo not drawn) | 0.14 |
| S=C=NCc1ccc2ccccc2c1 | 4.42 |
| COP(=O)(OC)Oc1ccc([N+](=O)[O-])cc1Cl | 1.83 |
| CN(C)Cc1cccs1 | 1.67 |
| COc1cc(-n2c(=O)cc(C)n2C)ncn1 | 0.3 |
| CCOC(=O)c1cnc2ccccn2c1=O | 0.25 |
| O=S(=O)(Nc1ccc(Cl)cc1)C(F)(F)F | 3.96 |
| Cn1ncc2ccccc2c1=O | 0.61 |
| CNC=CC(C)c1ccccn1 (stereo not drawn) | 1.13 |
| C[N+](C)(C)Cc1cccc(Cl)c1.[Br-] | -1.81 |
| CCC1(CC2COc3ccccc3O2)C(=O)NC(=O)NC1=O (stereo not drawn) | 1.85 |
